Results: ChEMBL document CHEMBL1201862, “PubChem BioAssay data set” (2004)
The source made the active and inactive calls.

Assays:
[1] = HEp-2 cell cytotoxicity, dose response, cytotoxicity control for RSV inhibitor project, HTS (AID 2410); type: functional; conditions: human respiratory syncytial virus
[2] = biological target: Luciferin 4-monooxygenase (Photinus pyralis, UniProt P08659); experiment: firefly luciferase enzyme inhibitors, dose response, biochemical, luminescence (AID 1891)
[3] = Luminescence Cell-Based Dose Confirmation HTS to Identify Inhibitors of Platelet Dense Granule Release. [Related pubchem assays: 1663 (Primary HTS), 1678 (Summary of Project)]; type: functional
[4] = biological target: FAD-linked sulfhydryl oxidase ALR (Homo sapiens, UniProt P55789); experiment: inhibitors of human ALR sulfhydryl oxidase, dose response, biochemical, H2O2 detection, luminescence, cherry-pick (AID 493248)
[5] = NIH-3T3 fibroblast cytotoxicity, dose response, cytotoxicity control, cell-based, fluorescence, Alamar Blue, secondary assay (AID 2327); type: functional;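 note: NIH-3T3 mouse fibroblasts cultured with fluconazole at 8 µg/mL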
[6] = Luminescence Cell-Based Dose Response HTS to Identify Activators of Luciferase Translation or Activity in H4 […] Cells. [Related pubchem assays: 1829 (Project Summary), 1814 (Primary HTS)]; type: functional
H4 = experiment: Luminescence Cell-Based Dose Response HTS to Identify Activators of 5'UTR Stem-Loop Driven Prion Protein mRNA Translation in H4 Neuroglioblastoma Cells. [Related pubchem assays: 1829 (Project Summary), 1814 (Primary HTS)]; type: functional; conditions: Homo sapiens
[7] = biological target: T1, Rac GTPase-activating protein 1 (Homo sapiens, UniProt Q9H0H5); experiment: MgcRacGAP GTPase-activating activity inhibitors, confirmation, biochemical, ADP Hunter fluorescence, primary and confirmatory (AID 624330); type: functional
T1 sequence (Q9H0H5 whole entry): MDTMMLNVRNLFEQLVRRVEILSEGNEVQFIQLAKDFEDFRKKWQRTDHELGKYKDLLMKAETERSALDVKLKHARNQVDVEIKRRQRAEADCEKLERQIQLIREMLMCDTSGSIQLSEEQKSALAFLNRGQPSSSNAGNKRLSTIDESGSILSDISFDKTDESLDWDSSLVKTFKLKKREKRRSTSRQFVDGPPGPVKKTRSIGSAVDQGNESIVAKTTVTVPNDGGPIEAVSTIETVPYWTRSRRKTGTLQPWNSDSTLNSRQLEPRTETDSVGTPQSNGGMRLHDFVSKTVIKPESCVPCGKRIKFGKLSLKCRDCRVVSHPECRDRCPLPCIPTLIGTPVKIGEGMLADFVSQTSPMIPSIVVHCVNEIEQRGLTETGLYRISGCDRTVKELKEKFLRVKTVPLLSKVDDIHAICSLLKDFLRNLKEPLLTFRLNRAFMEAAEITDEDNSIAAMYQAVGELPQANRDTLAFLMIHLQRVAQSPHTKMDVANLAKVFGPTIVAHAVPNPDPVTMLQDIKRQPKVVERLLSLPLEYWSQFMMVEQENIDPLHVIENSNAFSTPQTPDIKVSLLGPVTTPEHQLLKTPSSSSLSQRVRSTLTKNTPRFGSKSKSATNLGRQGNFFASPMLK

Fatty acid synthase [8] = biological target: T2, Fatty acid synthase (Homo sapiens, UniProt P49327); experiment: FAS thioesterase domain inhibitors, dose response, biochemical, endpoint fluorescence intensity, uHTS hits (AID 624327); type: functional;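 note: fluorescence from hydrolysis of an O-methyl fluorescein acyl ester substrate by the enzyme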
Fatty acid synthase [9] = biological target: T2, Fatty acid synthase; experiment: FAS thioesterase domain inhibitors, dose response, biochemical, kinetic fluorescence intensity (AID 624326); type: functional;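 note: rate of fluorescence rise from hydrolysis of a fluorogenic O-methyl fluorescein ester substrate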

FAD-linked sulfhydryl oxidase ALR, sequence (P55789 whole entry): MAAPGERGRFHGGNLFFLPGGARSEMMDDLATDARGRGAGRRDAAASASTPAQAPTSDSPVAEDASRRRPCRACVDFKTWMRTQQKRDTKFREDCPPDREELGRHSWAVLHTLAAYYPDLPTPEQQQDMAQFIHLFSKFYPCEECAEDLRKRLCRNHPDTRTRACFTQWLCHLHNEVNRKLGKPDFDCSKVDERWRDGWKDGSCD
T2 sequence (P49327 whole entry, the tested form may be a part): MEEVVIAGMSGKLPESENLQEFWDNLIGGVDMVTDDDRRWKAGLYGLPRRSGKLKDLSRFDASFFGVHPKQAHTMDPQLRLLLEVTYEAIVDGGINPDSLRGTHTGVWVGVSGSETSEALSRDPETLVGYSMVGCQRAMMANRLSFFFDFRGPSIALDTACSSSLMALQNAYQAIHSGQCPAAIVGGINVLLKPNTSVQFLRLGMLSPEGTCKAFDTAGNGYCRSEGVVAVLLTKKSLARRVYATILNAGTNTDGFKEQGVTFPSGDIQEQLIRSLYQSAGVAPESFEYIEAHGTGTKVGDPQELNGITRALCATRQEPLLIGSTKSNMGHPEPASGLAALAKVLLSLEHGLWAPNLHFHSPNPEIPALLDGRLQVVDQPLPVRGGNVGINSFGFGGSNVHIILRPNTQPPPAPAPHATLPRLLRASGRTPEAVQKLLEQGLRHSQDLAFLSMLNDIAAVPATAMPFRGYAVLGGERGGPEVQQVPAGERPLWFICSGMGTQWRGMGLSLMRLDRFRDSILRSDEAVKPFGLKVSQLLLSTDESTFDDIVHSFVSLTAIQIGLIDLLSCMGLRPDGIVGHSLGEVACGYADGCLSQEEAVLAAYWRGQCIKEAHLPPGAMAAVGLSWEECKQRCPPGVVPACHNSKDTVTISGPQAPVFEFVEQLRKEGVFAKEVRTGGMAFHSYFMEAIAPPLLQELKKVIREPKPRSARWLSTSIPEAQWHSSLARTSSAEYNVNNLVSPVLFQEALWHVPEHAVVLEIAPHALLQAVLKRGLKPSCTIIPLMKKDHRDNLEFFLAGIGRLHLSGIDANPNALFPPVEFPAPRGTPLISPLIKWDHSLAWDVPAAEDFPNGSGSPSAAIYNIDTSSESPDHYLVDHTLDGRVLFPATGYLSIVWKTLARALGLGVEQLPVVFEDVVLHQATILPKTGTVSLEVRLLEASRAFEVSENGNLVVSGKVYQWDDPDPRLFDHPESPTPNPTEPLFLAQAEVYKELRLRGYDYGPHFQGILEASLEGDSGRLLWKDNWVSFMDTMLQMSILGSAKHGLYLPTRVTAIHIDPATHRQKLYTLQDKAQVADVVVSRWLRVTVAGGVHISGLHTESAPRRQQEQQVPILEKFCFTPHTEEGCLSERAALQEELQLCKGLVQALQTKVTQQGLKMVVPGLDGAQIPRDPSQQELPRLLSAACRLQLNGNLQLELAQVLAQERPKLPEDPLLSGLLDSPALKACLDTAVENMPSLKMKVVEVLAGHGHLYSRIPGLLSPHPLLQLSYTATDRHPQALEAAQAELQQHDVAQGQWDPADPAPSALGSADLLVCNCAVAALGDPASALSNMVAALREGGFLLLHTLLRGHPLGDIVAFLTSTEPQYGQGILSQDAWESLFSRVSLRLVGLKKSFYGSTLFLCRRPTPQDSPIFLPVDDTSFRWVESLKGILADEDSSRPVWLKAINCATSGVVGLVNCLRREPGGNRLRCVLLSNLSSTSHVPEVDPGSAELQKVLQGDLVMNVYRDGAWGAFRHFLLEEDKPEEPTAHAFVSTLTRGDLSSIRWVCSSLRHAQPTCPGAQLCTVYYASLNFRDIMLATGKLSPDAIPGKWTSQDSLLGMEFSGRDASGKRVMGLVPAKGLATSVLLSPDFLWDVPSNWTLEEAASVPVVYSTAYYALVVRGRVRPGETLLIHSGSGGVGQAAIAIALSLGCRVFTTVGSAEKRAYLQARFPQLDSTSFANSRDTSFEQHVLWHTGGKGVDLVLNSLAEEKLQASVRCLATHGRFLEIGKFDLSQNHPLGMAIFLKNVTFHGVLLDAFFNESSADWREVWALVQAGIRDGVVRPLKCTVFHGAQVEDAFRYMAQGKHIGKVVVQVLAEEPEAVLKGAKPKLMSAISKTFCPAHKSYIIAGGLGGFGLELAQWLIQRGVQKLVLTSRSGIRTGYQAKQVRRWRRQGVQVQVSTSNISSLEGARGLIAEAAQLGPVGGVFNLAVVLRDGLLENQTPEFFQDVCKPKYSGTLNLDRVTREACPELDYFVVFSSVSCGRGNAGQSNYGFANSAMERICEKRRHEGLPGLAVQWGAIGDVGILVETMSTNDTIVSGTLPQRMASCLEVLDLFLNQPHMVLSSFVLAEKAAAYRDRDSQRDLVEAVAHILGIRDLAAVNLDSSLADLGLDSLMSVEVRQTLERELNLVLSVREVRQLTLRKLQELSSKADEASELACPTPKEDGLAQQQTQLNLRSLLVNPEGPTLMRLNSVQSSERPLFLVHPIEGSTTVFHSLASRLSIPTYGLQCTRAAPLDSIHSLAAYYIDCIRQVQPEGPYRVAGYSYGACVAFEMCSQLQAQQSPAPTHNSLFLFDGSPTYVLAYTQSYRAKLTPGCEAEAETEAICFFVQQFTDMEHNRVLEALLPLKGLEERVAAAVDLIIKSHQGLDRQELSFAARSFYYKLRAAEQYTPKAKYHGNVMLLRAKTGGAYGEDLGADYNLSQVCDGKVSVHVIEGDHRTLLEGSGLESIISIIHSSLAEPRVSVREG
Luciferin 4-monooxygenase, sequence (P08659 whole entry): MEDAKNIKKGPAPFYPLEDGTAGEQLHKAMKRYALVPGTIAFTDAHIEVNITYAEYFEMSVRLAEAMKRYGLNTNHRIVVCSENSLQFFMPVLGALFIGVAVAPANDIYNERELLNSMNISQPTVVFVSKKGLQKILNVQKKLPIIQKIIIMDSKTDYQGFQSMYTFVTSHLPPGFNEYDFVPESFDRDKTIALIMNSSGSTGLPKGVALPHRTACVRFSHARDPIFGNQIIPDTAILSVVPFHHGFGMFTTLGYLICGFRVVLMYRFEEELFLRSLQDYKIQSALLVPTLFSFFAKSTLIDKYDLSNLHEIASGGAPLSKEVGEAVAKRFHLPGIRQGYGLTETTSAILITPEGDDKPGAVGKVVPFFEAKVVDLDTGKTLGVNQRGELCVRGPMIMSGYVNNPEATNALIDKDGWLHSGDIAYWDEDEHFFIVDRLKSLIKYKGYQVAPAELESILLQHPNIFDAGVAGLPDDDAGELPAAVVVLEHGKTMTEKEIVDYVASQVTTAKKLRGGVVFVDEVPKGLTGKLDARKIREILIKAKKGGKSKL

Cc1cc(C)c2c(c1)cc(C)c1nnc(SCC(=O)N3CCCc4ccccc43)n12
CC50 [1]: 44.2 µM (active)

COc1cccc(-c2nc(-c3ccc(C(=O)O)cc3)no2)c1
EC50 [2]: 794 nM (active)
EC50 [3]: 4.03 µM (active)

CC(C(=O)NC1C=CS(=O)(=O)C1)N1C(=O)/C(=C\c2ccccc2)SC1=S (stereo not drawn)
AC50 [4]: 359 nM (active)

CCC1(c2ccc(Cl)cc2)N=C(S)N(c2ccccc2)N1 (stereo not drawn)
EC50 [5]: 14.2 µM (active)

CCOC(=O)c1ccc2[nH]c3c(c2c1)CCCC3O (stereo not drawn)
CC50 [1]: 47.1 µM (active)

Cc1ccc2oc(-c3cccc(NC(=O)Cn4cnc5c(=O)n(C)c(=O)n(C)c54)c3)nc2c1
EC50 [6]: 42.3 µM (active)
EC50 (H4): 6.94 µM (active)

CC(=O)Nc1ccc(N2C(=O)CSC2c2ccc(F)cc2)cc1 (stereo not drawn)
AC50 [4]: < 5 nM (active)

CCN(CC)c1ccc(NS(=O)(=O)c2ccc3c(c2)oc(=O)n3C)c(C)c1
AC50 [4]: 409 nM (active)

O=C1NC(=O)N(c2ccc(C(=O)O)cc2)C(=O)/C1=C/c1c[nH]c2ccccc12
AC50 [4]: 177 nM (active)
IC50 [7]: 97.5 µM (active)

CC(C(=O)NCCc1ccccc1)N1c2cccc3cccc(c23)S1(=O)=O (stereo not drawn)
CC50 [1]: 45.6 µM (active)

CCN(CC)c1ccc(NS(=O)(=O)c2ccc(OC)cc2)cc1
AC50 [4]: 5110 nM (active)

Cc1ccc(/C=C/c2ccc(=O)n(Cc3ccc(F)cc3)n2)cc1
IC50 (Fatty acid synthase [8]): 11.8 µM (active)
IC50 (Fatty acid synthase [9]): 14 µM (active)

Cc1cccc(NNC(=O)C(=O)NNc2cccc(C)c2)c1
EC50 [5]: 2.38 µM (active)

CC(=O)Nc1sc(NC(=O)c2ccccc2)nc1-c1cccs1
AC50 [4]: 3140 nM (active)

COc1ccc(-c2ncc3ccccn23)cc1
EC50 [6]: 101 µM (active)
EC50 (H4): 32.1 µM (active)

COc1ccc(C(=O)CN(CCC(=O)O)S(=O)(=O)c2ccc([N+](=O)[O-])cc2)cc1
IC50 (Fatty acid synthase [8]): 3.51 µM (active)
IC50 (Fatty acid synthase [9]): 6.15 µM (active)

COc1ccc(-c2cc(-c3ccccc3O)[nH]n2)cc1OC
CC50 [1]: > 50 µM (active)
